Data: PubChem BioAssay AID1963986 (Molecular Pharmacology Branch, DTP, NCI, 2024)

Tested on: 171881-019-R-J1-PDC tumor spheroid viability
Assay: Anticancer human tumor 171881-019-R-J1-PDC patient-derived invasive breast carcinoma cell line growth inhibition [PI3K]
Conditions: spheroids with HUVEC and MSC; for IC50: curve of first compound; for viability, T/C: stronger effect = lower value
Procedure, shortened: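 Multi-cell spheroids combine tumor cells with HUVEC and human MSCs, treated with targeted agents alone or with inavolisib, alpelisib, duvelisib or copanlisib. Concentrations fall in half-log steps from at or near clinical Cmax, or from 10 microM where Cmax is unknown; viability read-out.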

[1] = second compound 0.00316 µM, first compound 0.0316 µM
[2] = second compound 0.00316 µM, first compound 0.1 µM
[3] = second compound 0.00316 µM, first compound 0.316 µM
[4] = second compound 0.00316 µM, first compound 1 µM
[5] = second compound 0.00316 µM, first compound 3.16 µM
[6] = second compound 0.00316 µM, first compound 10 µM
[7] = second compound 0.01 µM, first compound 0.0316 µM
[8] = second compound 0.01 µM, first compound 0.1 µM
[9] = second compound 0.01 µM, first compound 0.316 µM
[10] = second compound 0.01 µM, first compound 1 µM
[11] = second compound 0.01 µM, first compound 3.16 µM
[12] = second compound 0.01 µM, first compound 10 µM
[13] = second compound 0.0316 µM, first compound 0.0316 µM
[14] = second compound 0.0316 µM, first compound 0.1 µM
[15] = second compound 0.0316 µM, first compound 0.316 µM
[16] = second compound 0.0316 µM, first compound 1 µM
[17] = second compound 0.0316 µM, first compound 3.16 µM
[18] = second compound 0.0316 µM, first compound 10 µM
[19] = second compound 0.1 µM, first compound 0.0316 µM
[20] = second compound 0.1 µM, first compound 0.1 µM
[21] = second compound 0.1 µM, first compound 0.316 µM
[22] = second compound 0.1 µM, first compound 1 µM
[23] = second compound 0.1 µM, first compound 3.16 µM
[24] = second compound 0.1 µM, first compound 10 µM
[25] = second compound 0.316 µM, first compound 0.0316 µM
[26] = second compound 0.316 µM, first compound 0.1 µM
[27] = second compound 0.316 µM, first compound 0.316 µM
[28] = second compound 0.316 µM, first compound 1 µM
[29] = second compound 0.316 µM, first compound 3.16 µM
[30] = second compound 0.316 µM, first compound 10 µM
[31] = second compound 1 µM, first compound 0.0316 µM
[32] = second compound 1 µM, first compound 0.1 µM
[33] = second compound 1 µM, first compound 0.316 µM
[34] = second compound 1 µM, first compound 1 µM
[35] = second compound 1 µM, first compound 3.16 µM
[36] = second compound 1 µM, first compound 10 µM
[37] = second compound 0.00316 µM, first compound 0.00316 µM
[38] = second compound 0.00316 µM, first compound 0.01 µM
[39] = second compound 0.01 µM, first compound 0.00316 µM
[40] = second compound 0.01 µM, first compound 0.01 µM
[41] = second compound 0.0316 µM, first compound 0.00316 µM
[42] = second compound 0.0316 µM, first compound 0.01 µM
[43] = second compound 0.1 µM, first compound 0.00316 µM
[44] = second compound 0.1 µM, first compound 0.01 µM
[45] = second compound 0.316 µM, first compound 0.00316 µM
[46] = second compound 0.316 µM, first compound 0.01 µM
[47] = second compound 1 µM, first compound 0.00316 µM
[48] = second compound 1 µM, first compound 0.01 µM
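Also: spheroids exposed to compound for 7 days before viability read.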
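For viability, T/C in this document: 100% = DMSO vehicle-treated spheroids.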

Molecule `CC(C)NCC(C(=O)N1CCN(c2ncnc3c2C(C)CC3O)CC1)c1ccc(Cl)cc1` (stereo not drawn) + CC(Nc1ccc2c(c1)OCCn1cc(N3C(=O)OCC3C(F)F)nc1-2)C(N)=O has an IC50 (second compound 0.00316 µM) of 304 nM, an IC50 (second compound 0.01 µM) of 275 nM and an IC50 (second compound 0.0316 µM) of 65.5 nM. It also gave an IC50 (second compound 0.1 µM) of under 31.6 nM, an IC50 (second compound 0.316 µM) of under 31.6 nM and an IC50 (second compound 1 µM) of under 31.6 nM. It also gave a viability, T/C [1] of 84%, a viability, T/C [2] of 70% and a viability, T/C [3] of 50.4%. For the same molecule, the viability, T/C [4] was 26.5%, the viability, T/C [5] was 13.8% and the viability, T/C [6] was 9.57%. The viability, T/C [7] was 64.8%, the viability, T/C [8] was 69% and the viability, T/C [9] was 45.6%. It also gave a viability, T/C [10] of 24.4%, a viability, T/C [11] of 13.4% and a viability, T/C [12] of 9.59%. For the same molecule, the viability, T/C [13] was 52%, the viability, T/C [14] was 48.9% and the viability, T/C [15] was 38.6%. For the same molecule, the viability, T/C [16] was 22.3%, the viability, T/C [17] was 12.2% and the viability, T/C [18] was 8.08%. For the same molecule, the viability, T/C [19] was 35.4%, the viability, T/C [20] was 35.5% and the viability, T/C [21] was 31.3%. The viability, T/C [22] was 19.5%, the viability, T/C [23] was 11.7% and the viability, T/C [24] was 7.31%. For the same molecule, the viability, T/C [25] was 27.1%, the viability, T/C [26] was 23.8% and the viability, T/C [27] was 23.5%. The viability, T/C [28] was 16.4%, the viability, T/C [29] was 10.8% and the viability, T/C [30] was 7.4%. The viability, T/C [31] was 20.5%, the viability, T/C [32] was 20% and the viability, T/C [33] was 19.1%. For the same molecule, the viability, T/C [34] was 13.5%, the viability, T/C [35] was 9.24% and the viability, T/C [36] was 7.07%.

For `CCN1CCN(Cc2ccc(Nc3ncc(F)c(-c4cc(F)c5nc(C)n(C(C)C)c5c4)n3)nc2)CC1` + CC(Nc1ccc2c(c1)OCCn1cc(N3C(=O)OCC3C(F)F)nc1-2)C(N)=O, the IC50 (second compound 0.00316 µM) was over 1000 nM, the IC50 (second compound 0.01 µM) was over 1000 nM and the IC50 (second compound 0.0316 µM) was over 1000 nM. For the same molecule, the IC50 (second compound 0.1 µM) was under 3.16 nM, the IC50 (second compound 0.316 µM) was under 3.16 nM and the IC50 (second compound 1 µM) was under 3.16 nM. It also gave a viability, T/C [37] of 87%, a viability, T/C [38] of 95.7% and a viability, T/C [1] of 108%. The viability, T/C [2] was 106%, the viability, T/C [3] was 120% and the viability, T/C [4] was 122%. It also gave a viability, T/C [39] of 82.5%, a viability, T/C [40] of 77.5% and a viability, T/C [7] of 85.9%. The viability, T/C [8] was 84.9%, the viability, T/C [9] was 95.7% and the viability, T/C [10] was 109%. For the same molecule, the viability, T/C [41] was 58%, the viability, T/C [42] was 57.3% and the viability, T/C [13] was 63.9%. The viability, T/C [14] was 64.5%, the viability, T/C [15] was 80.8% and the viability, T/C [16] was 80.1%. The viability, T/C [43] was 40%, the viability, T/C [44] was 38.3% and the viability, T/C [19] was 47.2%. It also gave a viability, T/C [20] of 48.2%, a viability, T/C [21] of 63% and a viability, T/C [22] of 70.2%. For the same molecule, the viability, T/C [45] was 27.6%, the viability, T/C [46] was 24.9% and the viability, T/C [25] was 33.1%. It also gave a viability, T/C [26] of 39.4%, a viability, T/C [27] of 46.4% and a viability, T/C [28] of 55.6%. The viability, T/C [47] was 23.1%, the viability, T/C [48] was 20.7% and the viability, T/C [31] was 26.6%. The viability, T/C [32] was 28.5%, the viability, T/C [33] was 36.4% and the viability, T/C [34] was 50.1%.

For `Cn1ncc(Cl)c1-c1cc(C(=O)NC(CN)Cc2cccc(F)c2)sc1Cl` (stereo not drawn) + CC(Nc1ccc2c(c1)OCCn1cc(N3C(=O)OCC3C(F)F)nc1-2)C(N)=O, the IC50 (second compound 0.00316 µM) was 149 nM, the IC50 (second compound 0.01 µM) was 134 nM and the IC50 (second compound 0.0316 µM) was 54.2 nM. The IC50 (second compound 0.1 µM) was under 31.6 nM, the IC50 (second compound 0.316 µM) was under 31.6 nM and the IC50 (second compound 1 µM) was under 31.6 nM. For the same molecule, the viability, T/C [1] was 70%, the viability, T/C [2] was 59.1% and the viability, T/C [3] was 34.8%. It also gave a viability, T/C [4] of 21.2%, a viability, T/C [5] of 12.9% and a viability, T/C [6] of 4.9%. It also gave a viability, T/C [7] of 64.1%, a viability, T/C [8] of 58.1% and a viability, T/C [9] of 31.4%. The viability, T/C [10] was 17.3%, the viability, T/C [11] was 12.5% and the viability, T/C [12] was 4.16%. It also gave a viability, T/C [13] of 53.6%, a viability, T/C [14] of 46.4% and a viability, T/C [15] of 29.3%. It also gave a viability, T/C [16] of 15.6%, a viability, T/C [17] of 11.4% and a viability, T/C [18] of 4.17%. For the same molecule, the viability, T/C [19] was 40.4%, the viability, T/C [20] was 33.5% and the viability, T/C [21] was 24.6%. For the same molecule, the viability, T/C [22] was 15.1%, the viability, T/C [23] was 10.2% and the viability, T/C [24] was 4.94%. The viability, T/C [25] was 27.2%, the viability, T/C [26] was 26.3% and the viability, T/C [27] was 18.1%. For the same molecule, the viability, T/C [28] was 14.6%, the viability, T/C [29] was 9.75% and the viability, T/C [30] was 4.08%. The viability, T/C [31] was 20.2%, the viability, T/C [32] was 18.1% and the viability, T/C [33] was 16.4%. The viability, T/C [34] was 12.9%, the viability, T/C [35] was 8.94% and the viability, T/C [36] was 3.85%.

For `Cn1ncnc1[C@H]1c2n[nH]c(=O)c3cc(F)cc(c23)N[C@@H]1c1ccc(F)cc1` + CC(Nc1ccc2c(c1)OCCn1cc(N3C(=O)OCC3C(F)F)nc1-2)C(N)=O, the IC50 (second compound 0.00316 µM) was over 100 nM, the IC50 (second compound 0.01 µM) was over 100 nM and the IC50 (second compound 0.0316 µM) was over 100 nM. For the same molecule, the IC50 (second compound 0.1 µM) was under 0.316 nM, the IC50 (second compound 0.316 µM) was under 0.316 nM and the IC50 (second compound 1 µM) was under 0.316 nM. For the same molecule, the viability, T/C (second compound 0.00316 µM, first compound 0.000316 µM) was 85.4%, the viability, T/C (second compound 0.00316 µM, first compound 0.001 µM) was 96.5% and the viability, T/C [37] was 95.2%. For the same molecule, the viability, T/C [38] was 91.6%, the viability, T/C [1] was 95.9% and the viability, T/C [2] was 70.6%. For the same molecule, the viability, T/C (second compound 0.01 µM, first compound 0.000316 µM) was 79%, the viability, T/C (second compound 0.01 µM, first compound 0.001 µM) was 76.4% and the viability, T/C [39] was 78.2%. For the same molecule, the viability, T/C [40] was 65.5%, the viability, T/C [7] was 81.5% and the viability, T/C [8] was 71.5%. It also gave a viability, T/C (second compound 0.0316 µM, first compound 0.000316 µM) of 54%, a viability, T/C (second compound 0.0316 µM, first compound 0.001 µM) of 55.7% and a viability, T/C [41] of 51.5%. It also gave a viability, T/C [42] of 52%, a viability, T/C [13] of 55.3% and a viability, T/C [14] of 48.7%. It also gave a viability, T/C (second compound 0.1 µM, first compound 0.000316 µM) of 37.8%, a viability, T/C (second compound 0.1 µM, first compound 0.001 µM) of 38.9% and a viability, T/C [43] of 36.8%. It also gave a viability, T/C [44] of 38%, a viability, T/C [19] of 36.8% and a viability, T/C [20] of 34.5%. It also gave a viability, T/C (second compound 0.316 µM, first compound 0.000316 µM) of 26.2%, a viability, T/C (second compound 0.316 µM, first compound 0.001 µM) of 26.3% and a viability, T/C [45] of 26.1%. For the same molecule, the viability, T/C [46] was 25%, the viability, T/C [25] was 26.2% and the viability, T/C [26] was 21.1%. The viability, T/C (second compound 1 µM, first compound 0.000316 µM) was 21.7%, the viability, T/C (second compound 1 µM, first compound 0.001 µM) was 18.7% and the viability, T/C [47] was 21.2%. The viability, T/C [48] was 18.6%, the viability, T/C [31] was 19.8% and the viability, T/C [32] was 17.7%.
